# Results taken from patent publication US12582638B2, “Pharmaceutical composition for treating cancer, containing mTOR-signaling inhibitor as active ingredient” (KOREA ADVANCED INSTITUTE OF SCIENCE AND TECHNOLOGY, priority 2020, dated 2026).
# What was measured:
# Test in all cases: Cell viability, CellTiterGlo, 72 hours
# Type in all cases: cell-based
# NCI-H1838 = settings: Homo sapiens, NCI-H1838 cells, Lung
# Experimental: (§1) In addition to the colorectal cells, 120 cancer cell lines treated with various concentrations of lomitapide were assayed for viability. To analyze cell viability, the cells were incubated with lomitapide at 37° C. for 72 hours in a 5% or 10% CO2 atmosphere and then equilibrated at room temperature for 1 hour, followed by addition of CellTiterGlo reagent (Promega). One hour later, luminescence was measured to calculate cell viability (%). The 120 cell lines were purchased from ATCC (American Type Culture Collection, Virginia, USA).
# OV56 = OV56 cells, Ovary
# Experimental: as §1
# Colo 205 = settings: Homo sapiens, Colo 205 cells, Colon
# Experimental: as §1
# SCLC-21H = settings: Homo sapiens, SCLC-21H cells, Lung
# Experimental: as §1
# A2780 = settings: Homo sapiens, A2780 cells, Ovary
# Experimental: as §1
# MV4-11 = settings: Homo sapiens, MV4-11 cells, Blood
# Experimental: as §1
# KMS-12-BM = settings: Homo sapiens, KMS-12-BM cells, Blood
# Experimental: as §1
# COR-L279 = settings: Homo sapiens, COR-L279 cells, Lung
# Experimental: as §1
# J82 = settings: Homo sapiens, J82 cells, Bladder
# Experimental: as §1
# NCI-H2009 = settings: Homo sapiens, NCI-H2009 cells, Lung
# Experimental: as §1
# SNU840 = settings: SNU-840, SNU840 cells, Ovary
# Experimental: as §1
# MCAS = MCAS cells, Ovary
# Experimental: as §1
# H4 = H4 cells, Brain
# Experimental: as §1
# BT-20 = settings: Homo sapiens, BT-20 cells, Breast
# Experimental: as §1
# K562 = settings: Homo sapiens, K562 cells, Blood
# Experimental: as §1
# Saos-2 EC = settings: Homo sapiens, Saos-2 EC cells, Bone
# Experimental: as §1
# HL-60 = settings: Homo sapiens, HL-60 cells, Blood
# Experimental: as §1
# RPMI 8226 = settings: Homo sapiens, RPMI 8226 cells, Blood
# Experimental: as §1
# A2058 = settings: Homo sapiens, A2058 cells, Skin
# Experimental: as §1
# NCI-H292 = settings: Homo sapiens, NCI-H292 cells, Lung
# Experimental: as §1
# HEC-1-B = settings: Homo sapiens, HEC-1-B cells, Endometrium
# Experimental: as §1
# PC3 = settings: Homo sapiens, PC-3, PC3 cells, Prostate
# Experimental: as §1
# NCI-H838 = settings: Homo sapiens, NCI-H838 cells, Lung
# Experimental: as §1
# MCF-7 = settings: Homo sapiens, MCF7, MCF-7 cells, Breast
# Experimental: as §1
# SK-MEL-3 = settings: Homo sapiens, SK-MEL3, SK-MEL-3 cells, Skin
# Experimental: as §1
# H1299 = settings: Homo sapiens, NCI-H1299, H1299 cells, Lung
# Experimental: as §1
# Jurkat = settings: Homo sapiens, Jurkat cells, Blood
# Experimental: as §1
# EPLC-272H = settings: Homo sapiens, EPLC-272H cells, Lung
# Experimental: as §1
# OVK18 = OVK18 cells, Ovary
# Experimental: as §1
# U-937 = settings: Homo sapiens, U-937 cells, Blood
# Experimental: as §1
# NCI-H2286 = settings: Homo sapiens, NCI-H2286 cells, Lung
# Experimental: as §1
# M07e = settings: M-07e, M07e cells, Blood
# Experimental: as §1
# SW948 = settings: Homo sapiens, SW948 cells, Colon
# Experimental: as §1
# NCI-H2110 = NCI-H2110 cells, Lung
# Experimental: as §1
# MKN-45 = settings: Homo sapiens, MKN-45 cells, Stomach
# Experimental: as §1
# MOLM-13 = settings: Homo sapiens, MOLM-13 cells, Blood
# Experimental: as §1
# AsPC-1 = settings: Homo sapiens, ASPC1, AsPC-1 cells, Pancreas
# Experimental: as §1
# T98G = settings: Homo sapiens, T98G cells, Brain
# Experimental: as §1
# Caki-1 = settings: Homo sapiens, Caki-1 cells, Kidney
# Experimental: as §1
# Kato III = settings: Homo sapiens, Kato III cells, Stomach
# Experimental: as §1
smiles,measurement,setting,value
"O=C(NC1CCN(CCCCC2(C(=O)NCC(F)(F)F)c3ccccc3-c3ccccc32)CC1)c1ccccc1-c1ccc(C(F)(F)F)cc1 [lomitapide, N-(2,2,2-trifluoroethyl)-9-[4-[4-[[[4′-(trifluoromethyl)[1,1′-biphenyl]2-yl]carbonyl]amino]-1-piperidinyl]butyl]-9H-fluoren-9-carboxamide]",IC50,NCI-H1838,4 µM
same,IC50,OV56,4.8 µM
same,IC50,Colo 205,3.4 µM
same,IC50,SCLC-21H,3 µM
same,IC50,A2780,2.7 µM
same,IC50,MV4-11,6.2 µM
same,IC50,KMS-12-BM,3.5 µM
same,IC50,COR-L279,2.7 µM
same,IC50,J82,3.6 µM
same,IC50,NCI-H2009,3.3 µM
same,IC50,SNU840,2.3 µM
same,IC50,MCAS,4.5 µM
same,IC50,H4,4.6 µM
same,IC50,BT-20,5 µM
same,IC50,K562,2.1 µM
same,IC50,Saos-2 EC,3.6 µM
same,IC50,HL-60,3.3 µM
same,IC50,RPMI 8226,2.1 µM
same,IC50,A2058,1.4 µM
same,IC50,NCI-H292,3 µM
same,IC50,HEC-1-B,6.9 µM
same,IC50,PC3,4.3 µM
same,IC50,NCI-H838,3.8 µM
same,IC50,MCF-7,2.8 µM
same,IC50,SK-MEL-3,1.6 µM
same,IC50,H1299,4.8 µM
same,IC50,Jurkat,3 µM
same,IC50,EPLC-272H,3.1 µM
same,IC50,OVK18,3.3 µM
same,IC50,U-937,2.3 µM
same,IC50,NCI-H2286,3.4 µM
same,IC50,M07e,4.2 µM
same,IC50,SW948,4.5 µM
same,IC50,NCI-H2110,3.3 µM
same,IC50,MKN-45,3.9 µM
same,IC50,MOLM-13,6.3 µM
same,IC50,AsPC-1,3.6 µM
same,IC50,T98G,3.8 µM
same,IC50,Caki-1,3.6 µM
same,IC50,Kato III,5.4 µM
